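Cells were grown in 96-well plates and exposed to each compound for 48 hours at five concentrations; endpoints were interpolated linearly between bracketing concentrations, or set to the highest concentration if not reached. The concentration for 50% growth inhibition is given as GI50. Definition used: TGI = concentration required for complete inhibition of growth.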
Key:
Experiment in all cases: inhibition of tumour cell growth, NCI panel, 48 h
[1] = test system: HCT-15 colon
[2] = test system: K-562 leukemia
[3] = test system: HCT-116 colon
[4] = test system: HCC-2998 colon
[5] = test system: ACHN renal
[6] = test system: COLO 205 colon
[7] = test system: SN12C renal
[8] = test system: SK-MEL-5 melanoma
[9] = test system: UACC-62 melanoma
[10] = test system: KM12 colon
[11] = test system: SF-295 CNS
[12] = test system: OVCAR-4 ovarian
[13] = test system: PC-3 prostate
[14] = test system: OVCAR-3 ovarian
[15] = test system: SK-OV-3 ovarian
[16] = test system: 786-0 renal
[17] = test system: HOP-62 NSCLC
[18] = test system: SF-268 CNS
[19] = test system: UACC-257 melanoma
[20] = test system: BT-549 breast
[21] = test system: HL-60(TB) leukemia
[22] = test system: MDA-MB-435
[23] = test system: HT29 colon
[24] = test system: MCF7 breast
[25] = test system: SNB-75 CNS
[26] = test system: U251 CNS
[27] = test system: RXF 393 renal
[28] = test system: EKVX NSCLC
[29] = test system: DU-145 prostate
[30] = test system: M14 melanoma
[31] = test system: HOP-92 NSCLC
[32] = test system: IGROV1 ovarian
[33] = test system: MALME-3M melanoma
[34] = test system: NCI-H460 lung
[35] = test system: TK-10 renal
[36] = test system: OVCAR-8 ovarian
[37] = test system: T-47D breast
[38] = test system: UO-31 renal
[39] = test system: NCI-H226 lung
[40] = test system: SK-MEL-2 melanoma
[41] = test system: CAKI-1 renal
[42] = test system: SNB-19 CNS
[43] = test system: SW-620 colon
[44] = test system: NCI-H23 lung
[45] = test system: SF-539 CNS
[46] = test system: A549 NSCLC
[47] = test system: A498 renal
[48] = test system: SK-MEL-28 melanoma
[49] = test system: LOX IMVI melanoma
[50] = test system: CCRF-CEM leukemia
[51] = test system: NCI/ADR-RES ovarian
[52] = test system: HS 578T breast
[53] = test system: RPMI-8226 leukemia
[54] = test system: MDA-MB-231 breast
[55] = test system: SR leukemia
[56] = test system: OVCAR-5 ovarian
[57] = test system: NCI-H522 lung

Structure (SMILES): CC1=C(CCC(C)N(C)Cc2ccc(OCCCN3CCCC3)cc2)C(C)(C)CCC1 (centres undefined)
- GI50 [1]: 1.42 µM
- TGI [1]: 4.8 µM
- GI50 [2]: 1.67 µM
- TGI [2]: 4.06 µM
- GI50 [3]: 2.82 µM
- TGI [3]: 12.1 µM
- GI50 [4]: 1.5 µM
- TGI [4]: 4 µM
- GI50 [5]: 3.29 µM
- TGI [5]: 11.3 µM
- GI50 [6]: 1.56 µM
- TGI [6]: 3.42 µM
- GI50 [7]: 11 µM
- TGI [7]: 24.8 µM
- GI50 [8]: 1.75 µM
- TGI [8]: 3.15 µM
- GI50 [9]: 2.11 µM
- TGI [9]: 4.17 µM
- GI50 [10]: 4.6 µM
- TGI [10]: 17.7 µM
- GI50 [11]: 1.89 µM
- TGI [11]: 4.09 µM
- GI50 [12]: 7.76 µM
- TGI [12]: 21.4 µM
- GI50 [13]: 3.28 µM
- TGI [13]: 14.1 µM
- GI50 [14]: 5.72 µM
- TGI [14]: 19.3 µM
- GI50 [15]: 11.4 µM
- TGI [15]: 23.8 µM
- GI50 [16]: 2.59 µM
- TGI [16]: 11.7 µM
- GI50 [17]: 3.54 µM
- TGI [17]: 17.5 µM
- GI50 [18]: 4.07 µM
- TGI [18]: 17.5 µM
- GI50 [19]: 2.25 µM
- TGI [19]: 4.12 µM
- GI50 [20]: 12.3 µM
- TGI [20]: 27.1 µM
- GI50 [21]: 3.87 µM
- TGI [21]: 20.4 µM
- GI50 [22]: 1.43 µM
- TGI [22]: 2.85 µM
- GI50 [23]: 0.764 µM
- TGI [23]: 6.94 µM
- GI50 [24]: 1.63 µM
- TGI [24]: 3.65 µM
- GI50 [25]: 1.58 µM
- TGI [25]: 3.92 µM
- GI50 [26]: 2.46 µM
- TGI [26]: 6.38 µM
- GI50 [27]: 2.59 µM
- TGI [27]: 10.2 µM
- GI50 [28]: 9.07 µM
- TGI [28]: 23.2 µM
- GI50 [29]: 10.8 µM
- TGI [29]: 23.4 µM
- GI50 [30]: 1.75 µM
- TGI [30]: 3.7 µM
- GI50 [31]: 2.83 µM
- TGI [31]: 13.1 µM
- GI50 [32]: 4.03 µM
- TGI [32]: 16.6 µM
- GI50 [33]: 1.67 µM
- TGI [33]: 3.23 µM
- GI50 [34]: 3.02 µM
- TGI [34]: 8.81 µM
- GI50 [35]: 12.5 µM
- TGI [35]: 26.7 µM
- GI50 [36]: 5.75 µM
- TGI [36]: 19.9 µM
- GI50 [37]: 1.72 µM
- TGI [37]: 4.97 µM
- GI50 [38]: 3.2 µM
- TGI [38]: 13.3 µM
- GI50 [39]: 18.8 µM
- TGI [39]: 37.3 µM
- GI50 [40]: 2.96 µM
- TGI [40]: 7.49 µM
- GI50 [41]: 11.3 µM
- TGI [41]: 24.3 µM
- GI50 [42]: 3.61 µM
- TGI [42]: 12 µM
- GI50 [43]: 3.01 µM
- TGI [43]: 10.8 µM
- GI50 [44]: 10.4 µM
- TGI [44]: 24.9 µM
- GI50 [45]: 1.66 µM
- TGI [45]: 3.28 µM
- GI50 [46]: 6.48 µM
- TGI [46]: 20.5 µM
- GI50 [47]: 10.4 µM
- TGI [47]: 22.7 µM
- GI50 [48]: 1.68 µM
- TGI [48]: 3.5 µM
- GI50 [49]: 1.66 µM
- TGI [49]: 3.18 µM
- GI50 [50]: 2.66 µM
- TGI [50]: 11.6 µM
- GI50 [51]: 10.4 µM
- TGI [51]: 25 µM
- GI50 [52]: 2.53 µM
- TGI [52]: 9.73 µM
- GI50 [53]: 2.9 µM
- TGI [53]: 8.65 µM
- GI50 [54]: 1.89 µM
- TGI [54]: 4.48 µM
- GI50 [55]: 0.744 µM
- TGI [55]: 3.89 µM
- GI50 [56]: 3.2 µM
- TGI [56]: 11.1 µM
- GI50 [57]: 2.33 µM
- TGI [57]: 4.99 µM

Source: PubChem BioAssay (NCI)
